Experimental data: patent US4110327A, “2,3 Diketo-piperazinocarbonylamino alkanoic acids and derivatives” (Toyama Chemical Co., Ltd., priority 1974, dated 1978)
In brackets after ≈: the same amount, converted by molar mass. Each block holds one compound with its values, some of them ahead of it.

What was measured:
Type in all cases: cell-based
Pseudomonas aeruginosa = assay: MIC against clinical isolates; settings: unit assumed
[1] = system: Pseudomonas aeruginosa I.F.O.; assay: MIC against standard strain, plate method; settings: unit assumed
Method: (§1) The minimum inhibitory concentrations (MIC) was determined by the plate method disclosed in "Chemotherapy" (Japan), Vol. 16, (1968), pages 98 - 99. The culture medium used was a Heart infusion agar (pH 7.4). The number of the cells per plate used in the inoculum as 10^4 (10^6 cells/ml).

Escherichia coli NIHJ = assay: MIC against standard strain, plate method; settings: unit assumed
Method: as §1

Proteus vulgaris 3027 = assay: MIC against standard strain, plate method; settings: Proteus vulgaris 3027, standard strain; unit assumed
Method: as §1

Klebsiella pneumoniae [2] = assay: MIC against standard strain, plate method; settings: unit assumed
Method: as §1

[3] = system: Staphylococcus aureus 209p; assay: MIC against standard strain, plate method; settings: unit assumed
Method: as §1

Klebsiella pneumoniae [4] = assay: MIC against clinical isolates; settings: unit assumed
Staphylococcus aureus = assay: MIC against clinical isolates; settings: unit assumed

SMILES: CCN1CCN(C(=O)N[C@@H](C(=O)N[C@@H]2C(=O)N3[C@@H]2SC(C)(C)[C@@H]3C(=O)O)c2ccccc2)CC1=O [compound 19]
- MIC (Pseudomonas aeruginosa; clinical isolate GN 82): 12.5 µg/mL (≈ 24.8 µM)
- MIC (Pseudomonas aeruginosa; clinical isolate GN 163): 12.5 µg/mL (≈ 24.8 µM)
- MIC (Pseudomonas aeruginosa; clinical isolate GN 221): 12.5 µg/mL (≈ 24.8 µM)
- MIC (Pseudomonas aeruginosa; clinical isolate GN 376): 12.5 µg/mL (≈ 24.8 µM)
- MIC (Pseudomonas aeruginosa; clinical isolate GN 383): 12.5 µg/mL (≈ 24.8 µM)
- MIC (Pseudomonas aeruginosa; clinical isolate GN 1035): 100 µg/mL (≈ 199 µM)
- MIC (Pseudomonas aeruginosa; clinical isolate GN 1091): 12.5 µg/mL (≈ 24.8 µM)
- MIC (Pseudomonas aeruginosa; clinical isolate GN 2565): 50 µg/mL (≈ 99.3 µM)
- MIC (Pseudomonas aeruginosa; clinical isolate GN 2987): 12.5 µg/mL (≈ 24.8 µM)
- MIC (Pseudomonas aeruginosa; clinical isolate GN (number not given; Table 5-3)): 25 µg/mL (≈ 49.6 µM)
- MIC (Pseudomonas aeruginosa; clinical isolate S-1): 50 µg/mL (≈ 99.3 µM)
- MIC (Pseudomonas aeruginosa; clinical isolate S-2): 50 µg/mL (≈ 99.3 µM)
- MIC (Pseudomonas aeruginosa; clinical isolate S-3): 50 µg/mL (≈ 99.3 µM)
- MIC (Pseudomonas aeruginosa; clinical isolate S-4): 50 µg/mL (≈ 99.3 µM)
- MIC [1]: 12.5 µg/mL (≈ 24.8 µM)
- MIC (Escherichia coli NIHJ): < 1.57 µg/mL
- MIC (Proteus vulgaris 3027): 3.13 µg/mL (≈ 6.22 µM)
- MIC (Klebsiella pneumoniae [2]): 50 µg/mL (≈ 99.3 µM)
- MIC [3]: < 1.57 µg/mL
- MIC (Klebsiella pneumoniae [4]; clinical isolate GN 917): 50 µg/mL (≈ 99.3 µM)
- MIC (Klebsiella pneumoniae [4]; clinical isolate GN 3850): 100 µg/mL (≈ 199 µM)
- MIC (Klebsiella pneumoniae [4]; clinical isolate GN 4081): > 200 µg/mL
- MIC (Klebsiella pneumoniae [4]; clinical isolate GN 4117): > 200 µg/mL

SMILES: CCCCN1CCN(C(=O)N[C@@H](C(=O)N[C@@H]2C(=O)N3[C@@H]2SC(C)(C)[C@@H]3C(=O)O)c2ccccc2)CC1=O [compound 18]
- MIC [1]: 12.5 µg/mL (≈ 23.5 µM)
- MIC (Escherichia coli NIHJ): < 1.57 µg/mL
- MIC (Proteus vulgaris 3027): 3.13 µg/mL (≈ 5.89 µM)
- MIC (Klebsiella pneumoniae [2]): 25 µg/mL (≈ 47 µM)
- MIC [3]: < 1.57 µg/mL

SMILES: CC1(C)S[C@@H]2[C@H](NC(=O)[C@H](NC(=O)N3CCN(C(=O)c4ccc(Cl)cc4Cl)CC3=O)c3ccccc3)C(=O)N2[C@H]1C(=O)O [compound 10]
- MIC [1]: 100 µg/mL (≈ 154 µM)
- MIC (Escherichia coli NIHJ): < 1.57 µg/mL
- MIC (Proteus vulgaris 3027): 3.13 µg/mL (≈ 4.83 µM)
- MIC (Klebsiella pneumoniae [2]): 6.25 µg/mL (≈ 9.64 µM)
- MIC [3]: < 1.57 µg/mL

SMILES: CC1(C)S[C@@H]2[C@H](NC(=O)[C@H](NC(=O)N3CCN(S(C)(=O)=O)CC3=O)c3ccccc3)C(=O)N2[C@H]1C(=O)O [compound 5]
- MIC [1]: 25 µg/mL (≈ 45.2 µM)
- MIC (Escherichia coli NIHJ): < 1.57 µg/mL
- MIC (Proteus vulgaris 3027): < 1.57 µg/mL
- MIC (Klebsiella pneumoniae [2]): 12.5 µg/mL (≈ 22.6 µM)
- MIC [3]: < 1.57 µg/mL

- MIC [1]: 12.5 µg/mL (≈ 24.7 µM)
- MIC (Escherichia coli NIHJ): < 0.79 µg/mL
- MIC (Proteus vulgaris 3027): 3.13 µg/mL (≈ 6.19 µM)
- MIC (Klebsiella pneumoniae [2]): 12.5 µg/mL (≈ 24.7 µM)
- MIC [3]: < 0.79 µg/mL
SMILES: CN1CCN(C(=O)NC(C(=O)NC2C(=O)N3C2SC(C)(C)C3C(=O)O)C2=CCC=CC2)C(=O)C1=O (stereo not drawn) [compound 57]

- MIC [1]: 6.25 µg/mL (≈ 12 µM)
- MIC (Escherichia coli NIHJ): < 0.4 µg/mL
- MIC (Proteus vulgaris 3027): < 0.4 µg/mL
- MIC (Klebsiella pneumoniae [2]): 25 µg/mL (≈ 48.1 µM)
- MIC [3]: < 0.4 µg/mL
SMILES: CN1CCN(C(=O)N[C@@H](C(=O)N[C@@H]2C(=O)N3[C@@H]2SC(C)(C)[C@@H]3C(=O)O)c2ccc(O)cc2)C(=O)C1=O (single isomer, unassigned) [compound 48]

SMILES: CCCCN1CC(=O)N(C(=O)N[C@@H](C(=O)N[C@@H]2C(=O)N3[C@@H]2SC(C)(C)[C@@H]3C(=O)O)c2ccccc2)C(C)C1 (stereo partly drawn) [compound 15]
- MIC [1]: 50 µg/mL (≈ 91.6 µM)
- MIC (Escherichia coli NIHJ): 3.13 µg/mL (≈ 5.74 µM)
- MIC (Proteus vulgaris 3027): 6.25 µg/mL (≈ 11.5 µM)
- MIC (Klebsiella pneumoniae [2]): 6.25 µg/mL (≈ 11.5 µM)
- MIC [3]: < 1.57 µg/mL

- MIC (Pseudomonas aeruginosa; clinical isolate GN 82): 12.5 µg/mL (≈ 19.9 µM)
- MIC (Pseudomonas aeruginosa; clinical isolate GN 163): 12.5 µg/mL (≈ 19.9 µM)
- MIC (Pseudomonas aeruginosa; clinical isolate GN 221): 6.25 µg/mL (≈ 9.93 µM)
- MIC (Pseudomonas aeruginosa; clinical isolate GN 244): 25 µg/mL (≈ 39.7 µM)
- MIC (Pseudomonas aeruginosa; clinical isolate GN 376): 12.5 µg/mL (≈ 19.9 µM)
- MIC (Pseudomonas aeruginosa; clinical isolate GN 383): 25 µg/mL (≈ 39.7 µM)
- MIC (Pseudomonas aeruginosa; clinical isolate GN 1035): 50 µg/mL (≈ 79.4 µM)
- MIC (Pseudomonas aeruginosa; clinical isolate GN 1091): 12.5 µg/mL (≈ 19.9 µM)
- MIC (Pseudomonas aeruginosa; clinical isolate GN 2565): 50 µg/mL (≈ 79.4 µM)
- MIC (Pseudomonas aeruginosa; clinical isolate GN 2987): 12.5 µg/mL (≈ 19.9 µM)
- MIC (Pseudomonas aeruginosa; clinical isolate S-1): 25 µg/mL (≈ 39.7 µM)
- MIC (Pseudomonas aeruginosa; clinical isolate S-2): 25 µg/mL (≈ 39.7 µM)
- MIC (Pseudomonas aeruginosa; clinical isolate S-3): 50 µg/mL (≈ 79.4 µM)
- MIC (Pseudomonas aeruginosa; clinical isolate S-4): 50 µg/mL (≈ 79.4 µM)
- MIC [1]: 12.5 µg/mL (≈ 19.9 µM)
- MIC (Escherichia coli NIHJ): < 0.79 µg/mL
- MIC (Proteus vulgaris 3027): < 0.79 µg/mL
- MIC (Klebsiella pneumoniae [2]): < 0.4 µg/mL
- MIC [3]: < 0.79 µg/mL
- MIC (Staphylococcus aureus; clinical isolate F-1): 3.13 µg/mL (≈ 4.97 µM)
- MIC (Staphylococcus aureus; clinical isolate F-2): 1.56 µg/mL (≈ 2.48 µM)
- MIC (Staphylococcus aureus; clinical isolate F-3): 0.78 µg/mL (≈ 1.24 µM)
- MIC (Staphylococcus aureus; clinical isolate F-4): 3.13 µg/mL (≈ 4.97 µM)
- MIC (Staphylococcus aureus; clinical isolate F-5): 0.78 µg/mL (≈ 1.24 µM)
- MIC (Staphylococcus aureus; clinical isolate MS 8588): 1.56 µg/mL (≈ 2.48 µM)
- MIC (Staphylococcus aureus; clinical isolate MS 8596): 1.56 µg/mL (≈ 2.48 µM)
- MIC (Staphylococcus aureus; clinical isolate MS 8619): 0.78 µg/mL (≈ 1.24 µM)
- MIC (Staphylococcus aureus; clinical isolate MS 8684): 1.56 µg/mL (≈ 2.48 µM)
- MIC (Staphylococcus aureus; clinical isolate MS 8713): 1.56 µg/mL (≈ 2.48 µM)
- MIC (Klebsiella pneumoniae [4]; clinical isolate GN 917): 0.78 µg/mL (≈ 1.24 µM)
SMILES: CCN1CCN(C(=O)NC(C(=O)NC2C(=O)N3C(C(=O)O)=C(CSc4nnnn4C)CSC23)c2ccccc2)C(=O)C1=O (stereo not drawn) [compound 69]

- MIC [1]: 6.25 µg/mL (≈ 11.4 µM)
- MIC (Escherichia coli NIHJ): < 0.79 µg/mL
- MIC (Proteus vulgaris 3027): < 0.79 µg/mL
- MIC (Klebsiella pneumoniae [2]): 6.25 µg/mL (≈ 11.4 µM)
- MIC [3]: < 0.79 µg/mL
SMILES: COCOC(=O)[C@@H]1N2C(=O)[C@@H](NC(=O)[C@H](NC(=O)N3CCN(C)C(=O)C3=O)c3ccccc3)[C@H]2SC1(C)C (single isomer, unassigned) [compound 50]

SMILES: CCCCCCCCN1CCN(C(=O)NC(C(=O)NC2C(=O)N3C2SC(C)(C)C3C(=O)OCCN2CCOCC2)c2ccccc2)C(=O)C1=O (stereo not drawn) [compound 56]
- MIC [1]: 12.5 µg/mL (≈ 17.5 µM)
- MIC (Escherichia coli NIHJ): < 0.4 µg/mL
- MIC (Proteus vulgaris 3027): 0.79 µg/mL (≈ 1.11 µM)
- MIC (Klebsiella pneumoniae [2]): 1.57 µg/mL (≈ 2.2 µM)
- MIC [3]: < 0.4 µg/mL

SMILES: CCCCCCCCN1CCN(C(=O)NC(C(=O)NC2C(=O)N3C2SC(C)(C)C3C(=O)OCCN2CCCCC2)c2ccccc2)C(=O)C1=O (single isomer, unassigned) [compound 54]
- MIC [1]: 12.5 µg/mL (≈ 17.5 µM)
- MIC (Escherichia coli NIHJ): 0.4 µg/mL (≈ 0.561 µM)
- MIC (Proteus vulgaris 3027): 0.79 µg/mL (≈ 1.11 µM)
- MIC (Klebsiella pneumoniae [2]): 0.79 µg/mL (≈ 1.11 µM)
- MIC [3]: 0.79 µg/mL (≈ 1.11 µM)

SMILES: CCCCCC(=O)N1CCN(C(=O)N[C@@H](C(=O)N[C@@H]2C(=O)N3[C@@H]2SC(C)(C)[C@@H]3C(=O)O)c2ccccc2)C(=O)C1 [compound 6]
- MIC [1]: 50 µg/mL (≈ 87.2 µM)
- MIC (Escherichia coli NIHJ): 3.13 µg/mL (≈ 5.46 µM)
- MIC (Proteus vulgaris 3027): 6.25 µg/mL (≈ 10.9 µM)
- MIC (Klebsiella pneumoniae [2]): 6.25 µg/mL (≈ 10.9 µM)
- MIC [3]: 3.13 µg/mL (≈ 5.46 µM)

SMILES: CN1CCN(C(=O)N[C@@H](C(=O)N[C@@H]2C(=O)N3[C@@H]2SC(C)(C)[C@@H]3C(=O)O)c2ccccc2)CC1=O [compound 17]
- MIC [1]: 12.5 µg/mL (≈ 25.5 µM)
- MIC (Escherichia coli NIHJ): < 1.57 µg/mL
- MIC (Proteus vulgaris 3027): 6.25 µg/mL (≈ 12.8 µM)
- MIC (Klebsiella pneumoniae [2]): 50 µg/mL (≈ 102 µM)
- MIC [3]: < 1.57 µg/mL
